Measurements: patent US20230312564A1, “AROMATIC RING-LACTAM COMPOUND, PREPARATION METHOD THEREFOR AND USE THEREOF” (SHANGHAI RINGENE BIOPHARMA CO., LTD., priority 2020, published 2023)
pIC50: −log10 of the molar value. Several values for one entry are separate records, joined by “and”; a condition that tells them apart may be missing. Equal values may be shown once. Read-outs that look alike come from different tables or passages of the source. Each block holds one molecule with its values, some of them ahead of it.

Assays:
[1] = Liver microsomal metabolic stability, human; type: in vitro ADME; conditions: 0.5 mg/mL microsomes, 1 μM compound, NADPH; for half-life at 1 μM: liver microsomes, read-out: Liver microsomal stability T1/2
Description: (§1) The reaction was stopped with tinidazole-containing acetonitrile at 0 min, 5 min, 10 min and 30 min, respectively. After vortexing for 10 min and centrifuging at 15,000 rmp for 10 min, 50 μL of the supernatant was injected into a 96-well plate. The metabolic stability of the compound was calculated by determining the relative reduction of the drug, calculated as half-life T1/2.

[2] = Liver microsomal metabolic stability, rat; type: in vitro ADME; conditions: 0.5 mg/mL microsomes, 1 μM compound, NADPH; for half-life at 1 μM: liver microsomes, read-out: Liver microsomal stability T1/2
Description: as §1

[3] = Liver microsomal metabolic stability, dog; type: in vitro ADME; conditions: 0.5 mg/mL microsomes, 1 μM compound, NADPH; for half-life at 1 μM: liver microsomes, read-out: Liver microsomal stability T1/2
Description: as §1

Colo-205 cells = experiment: Colo-205 tumor cell proliferation, CCK-8, 72 hours; type: cell-based; conditions: for pIC50: read-out: Colo-205 IC50; for cell proliferation inhibitory activity (in words): Colo-205
Description: 1. Test method: Colo-205 cells (ATCC) in logarithmic growth phase were inoculated into a 96-well culture plate at an appropriate density with 90 μL per well. After overnight culture, different concentrations of the compound were added and acted for 72 hours, and a solvent control group (negative control) was set. After the compound was acted on cells for 72 hours, the effect of the compound on cell proliferation was detected by the cell counting kit CCK-8 (Dojindo), and 10 μL of CCK-8 reagent was added to each well. After the plate was placed in a 37° C. incubator for 2 to 4 hours, a full-wavelength microplate reader SpectraMax 190 was adopted for obtaining the readings with a measured wavelength of 450 nm. […] The IC50 value was obtained by four-parameter regression with the software attached to the microplate reader.

ERK1/2 kinase = system: T1, ERK1/2 kinase; experiment: ERK1/2 kinase (Carna) inhibitory activity, Caliper mobility shift; type: biochemical; conditions: for pIC50: read-out: ERK½ IC50
T1 construct: fused on or other part: Carna's ERK products carry a GST tag by vendor knowledge
Description: (1) Preparation of 1×Kinase buffer; (2) preparation of compound concentration gradient: the initial test concentration of the tested compound was 10 μM, which was 3-fold diluted to 10 concentrations, and a duplicate test was conducted, and then the tested compound was diluted in a 96 well plate to a 100-fold final concentration of 10 different concentrations of solution. […] Log (inhibitor) vs. response—Variable slope of the analysis software GraphPad Prism 5 was used to fit the dose-effect curve to obtain the IC50 value of each compound on the enzyme activity.
2. […] (A<10 nM, 10 nM≤B<200 nM, C≥200 nM)

[4] = Liver microsomal stability, comparisons in words across species; type: in vitro ADME
Description: as §1

[5] = system: Colo-205 transplanted tumor; experiment: Growth inhibition of nude mice Colo-205 transplanted tumor; type: in vivo; conditions: 50 mg/kg, qdx21, po
Description: The tumor tissue in the vigorous growth phase was cut into about 1.5 mm^3 and inoculated subcutaneously in the right axilla of nude mice under sterile conditions. The diameter of subcutaneous transplanted tumors in nude mice was measured with a vernier caliper, and the mice were randomly divided into groups when the average tumor volume reached about 130 mm^3. The embodiment compounds (injection water containing 1% Tween 80 were configured to a desired concentration for later use) were orally administered daily at a given dose for three consecutive weeks, and the solvent control group was administered with the same amount of solvent. During the whole test, the diameter of transplanted tumor was measured twice a week, and the mice were weighed at the same time. The calculation formula of tumor volume (TV) is expressed as TV=1/2×a×b^2, wherein a and b represent length and width, respectively. The relative tumor volume (RTV) was calculated according to the measurement results, and the calculation formula is RTV=Vt/V0, wherein V0 is the tumor volume measured when administered in separate cages (i.e., d0), and Vt is the tumor volume at the time of each measurement.

[6] = In-vivo pharmacokinetic parameters in mice; set-up: species or system Balb-c mice
Description: Six male SPF grade SD rats or Balb-c mice (Shanghai Sipple-Bikai Laboratory Animal) were divided into two groups, and the tested compounds were prepared into appropriate solutions or suspensions; one group was administered intravenously (with a dose of 1 mg/kg), and the other group was administered orally (with a dose of 5 mg/kg). Blood samples were collected by jugular vein puncture, and each sample was collected with a volume of about 0.2 mL/time point, and heparin sodium was used for anticoagulation. The time points of blood collection were listed below: 5, 15 and 30 min […], 1, 2, 4, 6, 8 and 24 h after administration; the collected blood samples were placed on ice and centrifuged to separate plasma (centrifugation conditions: 8,000 rpm, 6 min, 2 to 8° C.), and the collected plasma was stored at −80° C. before analysis. Plasma samples were analyzed by LC-MS/MS.
The pharmacokinetic parameters such as AUC0-t, AUC0-∞, MRT0-∞, Cmax, Tmax, T1/2 and Vd of the tested compounds and their mean values and standard deviations were calculated by the pharmacokinetic calculation software WinNonlin5.2 non-compartmental model according to the plasma concentration data. In addition, the bioavailability (F) was calculated by the following formula.
For samples with concentrations below the lower limit of quantitation, while pharmacokinetic parameter calculations were performed, samples sampled before Cmax was reached should be calculated as a zero value and samples sampled after Cmax was reached should be calculated as below limit of quantitation (BLQ).

[7] = rat, dog and human, compared with the comparative compound 1
[8] = male, Balb-c, mouse, plasma, IV, 1 mg/kg
[9] = male, Balb-c, mouse, plasma, PO, 5 mg/kg
[10] = Homo sapiens, COLO 205, 72 hours, CCK-8, class symbols
[11] = Homo sapiens, COLO 205, 72 hours, CCK-8, numeric values

Molecule: Cc1cccc([C@@H](CO)NC(=O)[C@@H](C)N2Cc3ccc(-c4nc(NC5CCOCC5)ncc4Cl)cc3C2=O)c1 [Comparative compound 1, (R)-2-(6-(5-Chloro-2-((tetrahydro-2H-pyran-4-yl)amino)pyrimidin-4-yl)-1-oxoisoindolin-2-yl)-N—((S′)-2-hydroxy-1l-(in-tolyl)ethyl)propanamide, reference compound]
half-life at 1 μM [1]: 3 min | half-life at 1 μM [2]: 4 min | half-life at 1 μM [3]: 40 min

Molecule: Cc1cccc([C@@H](CO)NC(=O)[C@@H](C)N2Cc3ncc(-c4nc(NC5CCOCC5)ncc4Cl)cc3C2=O)c1 [Comparative compound 3, (R)-2-(3-(5-Chloro-2-((tetrahydro-2H-pyran-4-yl)amino)pyrimidin-4-yl)-5-oxo-5,7-dihydro-6H-pyrrolo[3,4-b]pyridin-6-yl)-N—((S)-2-hydroxy-1-(m-tolyl)ethyl)propanamide, reference compound]
pIC50 (Colo-205 cells; Homo sapiens, COLO 205, 72 h): 7.27 | half-life at 1 μM [1]: 6 min | half-life at 1 μM [2]: 6 min | half-life at 1 μM [3]: 201 min

Molecule: Cc1cccc([C@@H](CO)NC(=O)[C@@H](C)N2Cc3c(F)cc(-c4nc(NC5CCOCC5)ncc4Cl)cc3C2=O)c1 [Comparative compound 4, (R)-2-(6-(5-Chloro-2-((tetrahydro-2H-pyran-4-yl)amino)pyrimidin-4-yl)-4-fluoro-1-oxoisoindolin-2-yl)-N—((S)-2-hydroxy-1-(m-tolyl)ethyl)propanamide, reference compound]
pIC50 (Colo-205 cells; Homo sapiens, COLO 205, 72 h): 7.42 | half-life at 1 μM [1]: 3 min | half-life at 1 μM [2]: 3 min | half-life at 1 μM [3]: 60 min

Molecule: Cc1cccc([C@@H](CO)NC(=O)[C@@H](C)N2Cc3ccc(-c4nc(NC5CCOCC5)ncc4Cl)c(F)c3C2=O)c1 [Embodiment 25]
pIC50 (Colo-205 cells; 72 hours, CCK-8, class symbols): > 7.00 | enzyme inhibitory activity (in words) (ERK1/2 kinase): extremely strong enzyme inhibitory activity | pIC50 (ERK1/2 kinase; numeric values): 9.15 | Liver microsomal stability T1/2 [1]: 18 min | Liver microsomal stability T1/2 [2]: 10 min and 15 min | stability in liver microsomes (in words) ([4]; rat and human, compared with the comparative compounds 1 and 4): significantly improved | stability in liver microsomes (in words) [4, 7]: significantly improved | Liver microsomal stability T1/2 [3]: 60 min and 70 min

Molecule: Cc1cccc([C@@H](CO)NC(=O)[C@@H](C)N2Cc3ccc(-c4nc(NC5CCOCC5)ncc4F)c(F)c3C2=O)c1 [Embodiment 31, (R)-2-(7-Fluoro-6-(5-fluoro-2-((tetrahydro-2H-pyran-4-yl)amino)pyrimidin-4-yl)-1-oxoisoindolin-2-yl)-N—((S)-2-hydroxy-1-(m-tolyl)ethyl)propanamide]
T/C [5]: 27.9% | Initial weight (D0) ([5]; D0): 20.1 g | Terminal weight (D21) ([5]; D21): 21.7 g | Initial tumor volume ([5]; initial): 96 ± 21 mm^3 | Terminal tumor volume ([5]; terminal): 271 ± 128 mm^3 | F ([6]; PO 5 mg/kg vs IV 1 mg/kg): 52% | AUC(0-inf) [6, 8]: 0.407 µM·h | AUC(0-t) [6, 8]: 0.397 µM·h | MRT inf [6, 8]: 30 min | clearance [6, 8]: 75 mL/min/kg | half-life [6, 8]: 84 min | Vd ([6]; male, Balb-c, mouse, plasma, IV, 1 mg/kg, read-out: Vss): 2 L/kg | AUC(0-inf) [6, 9]: 1.06 µM·h | AUC(0-t) [6, 9]: 1.05 µM·h | Cmax [6, 9]: 1170 nM | Tmax [6, 9]: 18 min | half-life [6, 9]: 90 min

Molecule: (R)-2-(6-(5-Chloro-2-((tetrahydro-2H-pyran-4-yl)amino)pyrimidin-4-yl)-4-fluoro-1-oxoisoindolin-2-yl)-N—((S)-2-hydroxy-1-(m-tolyl)ethyl)propanamide [Comparative compound 4, reference compound]
pIC50 (Colo-205 cells; 72 hours, CCK-8, class symbols): < 6.00 | pIC50 (ERK1/2 kinase; numeric values): 6.98

The next lines start with results.

pIC50 (Colo-205 cells; [10]): 6.00 to 7.00 | pIC50 (ERK1/2 kinase; class symbols): > 8.00
Molecule: C[C@H](C(=O)N[C@H](CO)c1cccc(Cl)c1)N1Cc2ccc(-c3nc(NC4CCC(O)C(F)C4)ncc3F)c(F)c2C1=O (stereo partly drawn) [Embodiment 39]
enzyme inhibitory activity (in words) (ERK1/2 kinase): extremely strong enzyme inhibitory activity

pIC50 (Colo-205 cells; [10]): > 7.00 | pIC50 (ERK1/2 kinase; numeric values): > 9.00
Molecule: Cc1cc([C@@H](CO)NC(=O)[C@@H](C)N2Cc3ccc(-c4nc(NC5CCOCC5)ncc4F)c(F)c3C2=O)ccn1 [Embodiment 41]

pIC50 (Colo-205 cells; [10]): > 7.00 | pIC50 (ERK1/2 kinase; class symbols): > 8.00
Molecule: COc1cc(F)cc([C@@H](CO)NC(=O)[C@@H](C)N2Cc3ccc(-c4nc(NC5CC(F)(F)C5)ncc4F)c(F)c3C2=O)c1 [Embodiment 43]

pIC50 (Colo-205 cells; [10]): > 7.00 | pIC50 (ERK1/2 kinase; numeric values): > 9.00
Molecule: COc1cc(F)cc([C@@H](CO)NC(=O)[C@@H](C)N2Cc3ccc(-c4nc(Nc5ccnn5C)ncc4F)c(F)c3C2=O)c1 [Embodiment 45]
cell proliferation inhibitory activity (in words) (Colo-205 cells): strong cell proliferation inhibitory activity | enzyme inhibitory activity (in words) (ERK1/2 kinase): extremely strong enzyme inhibitory activity

pIC50 (Colo-205 cells; [10]): 6.00 to 7.00 | pIC50 (ERK1/2 kinase; class symbols): > 8.00
Molecule: C[C@H](C(=O)NCc1cccc(N(C)C)n1)N1Cc2ccc(-c3nc(NC4CCOCC4)ncc3F)c(F)c2C1=O [Embodiment 47]

pIC50 (Colo-205 cells; [10]): > 7.00 | pIC50 (ERK1/2 kinase; class symbols): > 8.00
Molecule: C[C@H](C(=O)N[C@H](CO)c1cccc(Cl)c1)N1Cc2ccc(-c3nc(NC4CC[C@H](O)[C@@H](F)C4)ncc3F)c(F)c2C1=O (stereo partly drawn) [Embodiment 50]

pIC50 (Colo-205 cells; [11]): 6.78 | pIC50 (ERK1/2 kinase; class symbols): > 8.00
Molecule: Cn1nccc1Nc1nccc(-c2ccn([C@H](CO)c3ccc(Cl)c(F)c3)c(=O)c2)n1 [GDC0994, reference compound]

pIC50 (Colo-205 cells; [11]): 6.50 | pIC50 (ERK1/2 kinase; class symbols): > 8.00
Molecule: Cn1nccc1Nc1nccc(-c2cc3c(s2)C(C)(C)N(CCN2CCOCC2)C3=O)n1 [LY3214996, reference compound]

pIC50 (Colo-205 cells; 72 hours, CCK-8, numeric values): 7.05 | pIC50 (Colo-205 cells; [11]): 6.45 | Liver microsomal stability T1/2 [1]: 15 min | Liver microsomal stability T1/2 [2]: 18 min | stability in liver microsomes (in words) [4, 7]: significantly improved | stability in liver microsomes (in words) ([4]; rat, dog and human, compared with the comparative compounds 1 and 3): significantly improved | Liver microsomal stability T1/2 [3]: 403 min
Molecule: C[C@H](C(=O)N[C@H](CO)c1cccc(Cl)c1)N1Cc2ccc(-c3ccnc(Nc4ccnn4C)c3)cc2C1=O [compound 2, (R)—N—((S)-1-(3-Chlorophenyl)-2-hydroxyethyl)-2-(6-(2-((1-methyl-1H-pyrazol-5-yl)amino)pyridin-4-yl)-1-oxoisoindolin-2-yl)propanamide, reference compound]
cell proliferation inhibitory activity (in words) (Colo-205 cells): strong cell proliferation inhibitory activity | enzyme inhibitory activity (in words) (ERK1/2 kinase): extremely strong enzyme inhibitory activity
